Here are results for 1 compound from publication PMC3412150 (Circulation research, 2012).

Broadly, the IC50 is the concentration needed to halve the response being measured.

The test concerns the target Nav1.8 (SCN10A) (Homo sapiens, UniProt Q9Y5Y9). In words: whole-cell voltage clamp, transfected ND7/[…] cells. It is filed as cell-based.

Chain of Nav1.8 (SCN10A) (Q9Y5Y9 whole entry): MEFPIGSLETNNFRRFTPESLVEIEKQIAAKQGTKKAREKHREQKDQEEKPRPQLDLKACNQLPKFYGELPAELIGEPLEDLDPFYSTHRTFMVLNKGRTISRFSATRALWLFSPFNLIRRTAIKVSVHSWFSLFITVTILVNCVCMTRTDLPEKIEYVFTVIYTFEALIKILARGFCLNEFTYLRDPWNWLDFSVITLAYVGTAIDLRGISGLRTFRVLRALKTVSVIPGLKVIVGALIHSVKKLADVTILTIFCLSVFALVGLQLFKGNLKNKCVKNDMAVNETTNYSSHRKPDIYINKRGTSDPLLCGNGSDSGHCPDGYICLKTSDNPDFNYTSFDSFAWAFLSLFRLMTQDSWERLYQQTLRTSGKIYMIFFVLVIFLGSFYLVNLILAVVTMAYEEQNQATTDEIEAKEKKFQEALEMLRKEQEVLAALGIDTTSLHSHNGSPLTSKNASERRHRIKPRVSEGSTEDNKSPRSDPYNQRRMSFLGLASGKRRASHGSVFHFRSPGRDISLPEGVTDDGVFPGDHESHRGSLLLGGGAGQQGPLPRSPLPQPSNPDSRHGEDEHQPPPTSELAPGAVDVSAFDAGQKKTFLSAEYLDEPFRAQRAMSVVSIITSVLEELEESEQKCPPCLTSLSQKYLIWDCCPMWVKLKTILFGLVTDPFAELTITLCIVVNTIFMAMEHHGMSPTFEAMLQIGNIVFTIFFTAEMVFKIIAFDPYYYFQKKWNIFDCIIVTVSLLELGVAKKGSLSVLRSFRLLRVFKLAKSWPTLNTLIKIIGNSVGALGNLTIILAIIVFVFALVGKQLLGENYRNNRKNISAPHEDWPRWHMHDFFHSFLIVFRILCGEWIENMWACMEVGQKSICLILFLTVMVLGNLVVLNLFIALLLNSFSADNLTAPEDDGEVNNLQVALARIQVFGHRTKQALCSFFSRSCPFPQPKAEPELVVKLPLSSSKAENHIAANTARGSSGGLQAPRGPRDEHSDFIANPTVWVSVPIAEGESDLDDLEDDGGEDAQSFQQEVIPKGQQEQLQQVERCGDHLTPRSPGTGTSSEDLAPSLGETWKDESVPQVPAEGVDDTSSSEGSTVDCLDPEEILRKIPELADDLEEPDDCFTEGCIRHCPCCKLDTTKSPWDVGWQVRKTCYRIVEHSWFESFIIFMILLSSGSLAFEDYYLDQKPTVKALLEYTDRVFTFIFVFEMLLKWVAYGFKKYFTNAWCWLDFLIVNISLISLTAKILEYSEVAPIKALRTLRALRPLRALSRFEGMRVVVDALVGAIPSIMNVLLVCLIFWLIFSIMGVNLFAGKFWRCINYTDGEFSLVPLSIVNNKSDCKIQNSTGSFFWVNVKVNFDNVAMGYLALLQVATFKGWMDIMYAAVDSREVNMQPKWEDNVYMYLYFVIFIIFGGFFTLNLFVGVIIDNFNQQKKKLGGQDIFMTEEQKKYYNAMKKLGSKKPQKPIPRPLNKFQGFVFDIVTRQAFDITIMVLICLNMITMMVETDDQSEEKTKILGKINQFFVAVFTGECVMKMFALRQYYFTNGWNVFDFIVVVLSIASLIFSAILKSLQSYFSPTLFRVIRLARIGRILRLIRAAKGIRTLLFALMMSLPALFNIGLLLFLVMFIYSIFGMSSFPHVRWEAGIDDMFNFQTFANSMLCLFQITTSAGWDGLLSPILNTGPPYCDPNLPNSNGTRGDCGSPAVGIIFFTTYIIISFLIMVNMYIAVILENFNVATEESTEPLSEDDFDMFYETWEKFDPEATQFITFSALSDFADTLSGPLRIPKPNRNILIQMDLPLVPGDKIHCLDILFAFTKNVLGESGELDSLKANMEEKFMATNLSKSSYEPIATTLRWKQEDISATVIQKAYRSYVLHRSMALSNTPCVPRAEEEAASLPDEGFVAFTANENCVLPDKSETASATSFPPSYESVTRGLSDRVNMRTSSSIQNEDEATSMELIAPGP

In the case of `COc1cc(NC(=O)c2ccc(-c3ccc(Cl)cc3)o2)cc(OC)c1` [A-803467], the IC50 was around 10 nM.
